Test results reported in PubChem BioAssay AID1996.
Values after ≈ are worked out from the molar mass of the structure shown.

settings: buffer; pH 7.4; 200.0 µM

| solubility kinetic [µg/mL] | Compound |
| --- | --- |
| 43.1 (≈ 126 µM) | O=C(CN1CCN(Cc2cccc(F)c2)CC1)NCc1ccccc1 |
| > 49 | CC(C)NC(=O)COc1ccc(S(=O)(=O)N2CCCC2)cc1 |
| 19.5 (≈ 64.7 µM) | COc1cccc(CNC(=O)c2csc3c2CCCC3)c1 |
| 42.7 (≈ 142 µM) | O=C(c1ccco1)N1CCN(CCOc2ccccc2)CC1 |
| > 45.4 | Cc1ccc(NC(=O)CS(=O)c2ccccc2N)c(C)c1 (stereo not given) |
| > 52.1 | CCOC(=O)C1(Cc2cccc(F)c2)CCN(C(=O)C2CCC2)CC1 |
| > 44.6 | O=C(CCC(=O)c1ccccc1)Nc1ccc(C(=O)O)cc1 |
| < 0.3 | CCCC1/C(=N/O)CC(c2ccccc2)NC1c1ccccc1 (stereo not given) |
| > 43.5 | O=C(CNC(=O)c1ccccc1Cl)Nc1ccncc1 |
| 1 (≈ 3.57 µM) | Cc1cccc(C)c1NC(=O)NC1CCc2ccccc21 (stereo not given) |
| 2.8 (≈ 7.37 µM) | O=C(Nc1ccc(F)cc1)NC1CCN(Cc2c(F)cccc2Cl)CC1 |
| > 41.7 | Nc1nc(N)n(-c2ccccc2)c(=Nc2ccccc2)n1 |
| 16.1 (≈ 44.9 µM) | O=S(=O)(c1ccccc1)c1nc(-c2ccco2)oc1N1CCCCC1 |
| 46 (≈ 108 µM) | CC(C)[C@H](NC(=O)c1ccccc1)C(=O)OCC(=O)Nc1ncc(Cl)cc1Cl |
| 6.1 (≈ 26.3 µM) | O=C(Nc1cccc(F)c1)Nc1cnccn1 |
| > 46.3 | Nc1cc(=O)[nH]c(SCC(=O)NCCC2=CCCCC2)n1 |
| 12.5 (≈ 44.4 µM) | O=C(/C=C/c1ccc(F)cc1)N1CCc2ccccc2C1 |
| 2 (≈ 6.73 µM) | c1csc(-c2nc(N3CCOCC3)c3ccccc3n2)c1 |
| 42.6 (≈ 125 µM) | O=C(c1cccc(Cl)c1)N1CCC(c2nc3ccccc3[nH]2)CC1 |
| 33.2 (≈ 143 µM) | CC(CCc1ccccc1)N1CCN(C)CC1 (stereo not given) |

| solubility kinetic [µg/mL] | Compound |
| --- | --- |
| < 0.4 | CCn1c(=NC(=O)C2COc3ccccc3O2)sc2c(C)ccc(OC)c21 (stereo not given) |
| 3.1 (≈ 9.46 µM) | Cc1noc(-c2ccccc2)c1NC(=O)Nc1ccc(Cl)cc1 |
| > 66.1 | N#Cc1ccc(C(=O)Nc2cc(S(=O)(=O)N3CCOCC3)ccc2N2CCCC2)cc1 |
| > 43.5 | COc1cccc(CNC(=O)Cn2ccc([N+](=O)[O-])n2)c1 |
| 3.6 (≈ 12.1 µM) | Cc1ccc2nc(C)cc(C(=O)NC3CCCCCC3)c2c1 |
| > 59.2 | Cc1ccc(C(=O)N2CCCCC2C(=O)O)cc1S(=O)(=O)N1CCCCC1 (stereo not given) |
| 13.2 (≈ 30.5 µM) | CC(NC(=O)COC(=O)c1ccc(S(=O)(=O)N2CCOCC2)cc1)c1ccccc1 (stereo not given) |
| 2 (≈ 6.09 µM) | CC(C)OC(=O)Cc1nc2sc(-c3ccccc3)cc2c(=O)[nH]1 |
| 44.4 (≈ 142 µM) | O=C(O)CSc1nc2ccc(C(=O)c3ccccc3)cc2[nH]1 |
| 37.9 (≈ 147 µM) | O=C(O)c1cc(N2CCOCC2)nc2ccccc12 |
| 32.5 (≈ 96.6 µM) | CCCN1CCC(N(CCc2ccccc2)Cc2ccccc2)CC1 |
| > 44.1 | O=C(O)CCn1c(=S)n(CCC(=O)O)c2ccccc21 |
| 7.6 (≈ 23.1 µM) | COc1ccc(OC)c(NC(=S)N2c3ccccc3CC2C)c1 (stereo not given) |
| > 40.2 | COc1ccccc1NC1=NC(CO)(CO)CS1 |
| > 45.8 | Cc1cc(C(=O)O)ccc1N=Cc1c(O)ccc2ccccc12 |
| 9.8 (≈ 31.6 µM) | C=C1c2cc3c(cc2NC(=S)N1Cc1ccccc1)OCO3 |
| > 43.4 | O=C(NC(=S)NCc1cccnc1)c1ccccc1F |
| 4.3 (≈ 15 µM) | Clc1ccc(CN2CCC(c3ccccc3)CC2)cc1 |
| > 40.7 | Cn1c(=O)[nH]c(=O)c2c1nc(N)n2Cc1ccccc1 |

The next lines start with the compound.

| Compound | solubility kinetic [µg/mL] |
| --- | --- |
| CC(C)CC(NC(N)=O)C(=O)Nc1ccc2c(c1)OCO2 (stereo not given) | > 44 |
| CSc1nc(-c2ccc(Cl)cc2)c(C#N)c(=O)n1C | < 0.2 |
| CCOC(OCC)c1ccc(/C=C\c2nccc(N)n2)cc1 | 13.7 (≈ 45.8 µM) |
| CC1CCC(NS(=O)(=O)c2ccc3c(c2)CC(=O)N3)CC1 (stereo not given) | 27.3 (≈ 88.5 µM) |
| O=C(NC1CCCCCC1)c1ccc(Br)o1 | 27.7 (≈ 96.8 µM) |
| COc1ccc(CCNC(=O)c2cccs2)cc1 | 38.7 (≈ 148 µM) |
| CC(=O)c1cccc(NC(=O)CCNC(=O)c2cccc(C)c2)c1 | 20.5 (≈ 63.2 µM) |
| CN1CC(=O)Nc2ccc(Br)cc2C1=O | > 40.4 |
| NCCS(=O)(=O)O | 1.2 (≈ 9.59 µM) |
| Cc1ccc(NC(=O)CN2C(=O)NC(C)(c3ccc4c(c3)OCO4)C2=O)cc1 (stereo not given) | > 57.2 |
| CNC(=S)Nc1ccc2[nH]c(=O)[nH]c2c1 | > 33.3 |
| CCOc1ccc(N2C(=O)CC(NCc3ccc(S(N)(=O)=O)cc3)C2=O)cc1 (stereo not given) | 48.7 (≈ 121 µM) |
| CCON1C(=O)C(C)(C)N(OCC)C(=O)C1(C)C | > 38.7 |
| CCOc1ccc(C(CC(=O)O)NC(=O)Cc2ccc(Cl)cc2)cc1 (stereo not given) | > 54.3 |
| Cc1nc2ccc(NS(=O)(=O)c3cccc([N+](=O)[O-])c3)cc2s1 | > 52.4 |
| COc1ccc(N/C(N)=N/c2nc(C)cc(=O)[nH]2)cc1 | 6.8 (≈ 24.9 µM) |
| Cc1nc(-c2ccc(-c3ccon3)s2)no1 | 16.6 (≈ 71.2 µM) |
| CCn1c(C)nnc1SCC(=O)Nc1ccc(C(C)=O)cc1 | > 47.8 |
| COc1ccc(CN2CCN(Cc3ccc(C)cc3)C(CCO)C2)cc1OC (stereo not given) | 51.8 (≈ 135 µM) |
| COc1ccc(Oc2nc3c(c(=O)n(C)c(=O)n3C)n2C)cc1 | > 47.4 |
| CNc1nc(N)c(C(=O)Nc2cc(C)on2)s1 | 35.4 (≈ 140 µM) |
| CC1CCCCC1NC(=O)COc1ccc(C#N)cc1 (stereo not given) | > 40.9 |
| COCCN(C/C=C/c1ccccc1)C/C=C/c1ccccc1 | 10.1 (≈ 32.9 µM) |

| Compound | solubility kinetic [µg/mL] |
| --- | --- |
| Cc1cc2oc(=O)cc(CN3CCCCC3C)c2cc1C(C)C (stereo not given) | 8.1 (≈ 25.8 µM) |
| COc1ccc(OC)c(NC(=O)COC(=O)C2CCC2)c1 | > 44 |
| COc1ccc(-n2cc([N+](=O)[O-])c(=O)c3ccc(Cl)cc32)cc1 | 0.7 (≈ 2.12 µM) |
| CC#C[C@]1(O)CC[C@H]2[C@@H]3CCC4=CC(=O)CCC4=C3[C@@H](c3ccc(N(C)C)cc3)C[C@@]21C | 7 (≈ 16.3 µM) |
| Nc1nc(N)c2c(n1)CCCC2 | 17.6 (≈ 107 µM) |
| Cc1nnc(SCC(=O)Nc2nccs2)o1 | > 38.4 |
| CC(C)c1ccccc1NC(=S)NCC1(N(C)C)CCCCC1 | 45.9 (≈ 138 µM) |
| CCC1(CC)Cc2ccccc2-c2[nH]c(=S)[nH]c(=O)c21 | 27.3 (≈ 95.3 µM) |
| Cc1ccc(S(=O)(=O)c2ccc([N+](=O)[O-])cn2)cc1 | 21 (≈ 75.5 µM) |
| C=CCn1c(O)c(CN2CCCCC2)c(C)c(C#N)c1=O | > 43.1 |
| O=C(O)C1CCC(N2C(=O)C3C4CCC(C4)C3C2=O)CC1 (stereo not given) | > 43.7 |
| CCOc1cc(/C=C/C(=O)OCC(=O)NCC2CCCO2)cc(Cl)c1OC (stereo not given) | 52.7 (≈ 132 µM) |
| CC(NC(=O)COC(=O)CCC(=O)c1ccc(Cl)cc1)c1ccccc1 (stereo not given) | > 56.1 |
| CC(=O)c1sccc1NC(=O)CC(C)(C)CC(=O)O | 32.5 (≈ 115 µM) |
| O=c1[nH]c2ccc(NC(=S)Nc3ccc(F)cc3)cc2[nH]1 | > 45.3 |
| O=C(COC(=O)/C=C/c1cccc(Cl)c1)NC1CC1 | 4.8 (≈ 17.2 µM) |
| COC(=O)c1c(C)[nH]c(C(=O)OCC(=O)c2ccc(C)s2)c1C | 5.7 (≈ 17 µM) |
| O=C(COC(=O)Cc1ccc(Br)cc1)NC1CCCC1 | > 51 |
| CN(c1ccc(F)cc1)S(=O)(=O)c1ccc(Cl)c(C(=O)NCc2ccco2)c1 | 34.9 (≈ 82.5 µM) |
| O=C(NC1(C(F)(F)F)NC(=O)N(C2CCCCC2)C1=O)c1ccco1 (stereo not given) | 50.2 (≈ 140 µM) |
| Cc1csc(=O)n1CCC(=O)N(C)Cc1c(F)cccc1Cl | > 51.4 |
| CCOC(=O)c1ccc(NC(=O)NCc2ccccn2)cc1 | 42.2 (≈ 141 µM) |
| CCOC(=O)c1ccc(NC(=S)NCc2ccco2)cc1 | > 45.7 |
